# Biological target: Integrin alpha-V/beta-3 (Homo sapiens, UniProt P05106+P06756)
# Experiment: Inhibition of human alpha-v-beta-3 integrin receptor by ELISA
# Type: protein-complex assay
# Sequence of Integrin alpha-V/beta-3 (P05106 27-788 limits assumed): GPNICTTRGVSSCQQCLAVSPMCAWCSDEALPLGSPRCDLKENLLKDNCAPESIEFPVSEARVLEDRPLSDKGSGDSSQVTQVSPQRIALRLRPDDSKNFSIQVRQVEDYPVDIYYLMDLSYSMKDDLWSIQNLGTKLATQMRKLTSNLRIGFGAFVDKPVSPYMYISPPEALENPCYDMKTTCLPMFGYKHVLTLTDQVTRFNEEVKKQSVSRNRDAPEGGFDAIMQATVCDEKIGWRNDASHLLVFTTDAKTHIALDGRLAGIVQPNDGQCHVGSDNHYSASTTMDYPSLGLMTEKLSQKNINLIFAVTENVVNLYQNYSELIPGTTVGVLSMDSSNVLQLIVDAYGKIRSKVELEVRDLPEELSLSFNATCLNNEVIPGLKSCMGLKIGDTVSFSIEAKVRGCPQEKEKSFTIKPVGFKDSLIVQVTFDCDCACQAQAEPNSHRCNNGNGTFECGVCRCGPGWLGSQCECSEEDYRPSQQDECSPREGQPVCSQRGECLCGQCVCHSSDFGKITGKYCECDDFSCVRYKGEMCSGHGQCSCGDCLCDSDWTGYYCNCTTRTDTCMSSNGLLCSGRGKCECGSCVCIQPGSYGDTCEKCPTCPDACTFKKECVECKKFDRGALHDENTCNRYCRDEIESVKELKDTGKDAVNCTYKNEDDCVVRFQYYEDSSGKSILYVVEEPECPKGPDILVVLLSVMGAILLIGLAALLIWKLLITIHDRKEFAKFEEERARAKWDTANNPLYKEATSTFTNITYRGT
# Sequence of Integrin alpha-V/beta-3 (P06756 31-889 limits assumed): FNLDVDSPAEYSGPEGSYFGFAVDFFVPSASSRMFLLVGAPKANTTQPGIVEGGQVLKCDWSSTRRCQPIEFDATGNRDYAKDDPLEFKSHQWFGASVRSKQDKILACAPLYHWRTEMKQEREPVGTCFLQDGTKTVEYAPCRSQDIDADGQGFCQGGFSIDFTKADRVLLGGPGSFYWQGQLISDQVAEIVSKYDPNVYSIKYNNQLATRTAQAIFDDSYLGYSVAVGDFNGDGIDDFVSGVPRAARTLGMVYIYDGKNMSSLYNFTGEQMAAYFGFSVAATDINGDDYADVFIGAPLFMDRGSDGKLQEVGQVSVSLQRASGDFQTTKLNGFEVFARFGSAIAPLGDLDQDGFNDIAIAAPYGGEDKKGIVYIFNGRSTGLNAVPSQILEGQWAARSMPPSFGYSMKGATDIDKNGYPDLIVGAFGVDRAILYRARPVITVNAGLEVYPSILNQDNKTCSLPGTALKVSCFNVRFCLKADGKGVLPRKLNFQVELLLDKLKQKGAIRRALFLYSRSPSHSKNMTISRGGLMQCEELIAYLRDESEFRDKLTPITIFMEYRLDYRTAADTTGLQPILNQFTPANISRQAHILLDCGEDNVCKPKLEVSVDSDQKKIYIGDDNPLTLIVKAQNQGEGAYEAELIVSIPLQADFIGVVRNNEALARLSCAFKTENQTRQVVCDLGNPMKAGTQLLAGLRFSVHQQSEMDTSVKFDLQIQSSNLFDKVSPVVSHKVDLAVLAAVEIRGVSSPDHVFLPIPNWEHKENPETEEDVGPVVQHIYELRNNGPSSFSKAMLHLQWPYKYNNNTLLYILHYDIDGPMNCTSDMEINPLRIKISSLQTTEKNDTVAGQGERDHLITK
# Sequence of Integrin alpha-V/beta-3 (P06756 891-1048 limits assumed): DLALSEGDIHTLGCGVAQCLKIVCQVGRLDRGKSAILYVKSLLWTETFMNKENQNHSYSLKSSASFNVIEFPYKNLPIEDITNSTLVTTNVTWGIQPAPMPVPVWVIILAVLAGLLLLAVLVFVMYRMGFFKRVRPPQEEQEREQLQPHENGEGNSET
row,IC50,SMILES
1,18300 nM,O=C(O)/C=C/c1ccccc1O[C@@H]1O[C@H](CO)[C@@H](O)[C@H](O)[C@H]1O [MELILOTOSIDE]

# Biological target: Matrix metalloproteinase-9 (Homo sapiens, UniProt P14780)
# Experiment: Inhibition of human MMP9 by quenched fluorescense assay
# Sequence of Matrix metalloproteinase-9 (P14780 whole entry): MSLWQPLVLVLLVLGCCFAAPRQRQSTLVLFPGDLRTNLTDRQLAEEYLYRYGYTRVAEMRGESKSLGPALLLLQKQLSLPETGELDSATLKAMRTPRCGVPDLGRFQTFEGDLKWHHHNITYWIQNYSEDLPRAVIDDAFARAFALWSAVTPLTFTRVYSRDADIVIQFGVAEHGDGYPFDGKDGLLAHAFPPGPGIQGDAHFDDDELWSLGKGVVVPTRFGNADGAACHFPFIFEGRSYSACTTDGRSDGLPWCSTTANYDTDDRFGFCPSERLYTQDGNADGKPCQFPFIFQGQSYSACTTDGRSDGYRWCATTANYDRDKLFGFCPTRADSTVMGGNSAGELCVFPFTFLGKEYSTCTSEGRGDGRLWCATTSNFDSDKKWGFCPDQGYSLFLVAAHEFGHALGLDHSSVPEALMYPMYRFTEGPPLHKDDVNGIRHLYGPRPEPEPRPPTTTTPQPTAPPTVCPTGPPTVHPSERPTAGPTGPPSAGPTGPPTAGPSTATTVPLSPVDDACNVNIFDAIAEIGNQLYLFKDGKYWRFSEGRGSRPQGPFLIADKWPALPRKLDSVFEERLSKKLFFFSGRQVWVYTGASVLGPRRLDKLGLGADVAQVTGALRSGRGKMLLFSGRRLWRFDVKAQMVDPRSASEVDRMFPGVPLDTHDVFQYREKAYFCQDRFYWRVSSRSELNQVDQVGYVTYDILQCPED
row,SMILES,IC50
1,C[C@@H]1C[C@@H](O)[C@@]2(O)[C@@]13C[C@@H](OC(=O)[C@@H]3O)[C@](C)(O)[C@@]21COC1=O [ANIASATIN],17700 nM
2,O=c1c2ccccc2nc2n1CCc1c-2[nH]c2ccccc12 [RUTAECARPINE],27700 nM
3,O=C(NO)[C@@H](Cc1ccccc1)NS(=O)(=O)c1ccc(-c2ccccc2)cc1,7.06 nM

# Biological target: T1, Cathepsin K (Homo sapiens, UniProt P43235)
# T1 sequence (P43235 whole entry): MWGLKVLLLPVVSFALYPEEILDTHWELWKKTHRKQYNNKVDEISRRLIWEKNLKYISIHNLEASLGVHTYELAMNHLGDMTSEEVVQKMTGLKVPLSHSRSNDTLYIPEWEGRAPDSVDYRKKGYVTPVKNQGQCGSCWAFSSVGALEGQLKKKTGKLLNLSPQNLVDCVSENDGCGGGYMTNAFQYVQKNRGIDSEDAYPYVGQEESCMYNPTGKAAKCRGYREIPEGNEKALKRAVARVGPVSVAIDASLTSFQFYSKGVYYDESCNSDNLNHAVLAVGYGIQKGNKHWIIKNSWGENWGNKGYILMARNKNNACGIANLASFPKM
# Experiment: Inhibition of human Cathepsin K
row,IC50,SMILES
1,1570 nM,"COc1ccc(-c2cc(=O)c3c(O)cc(OC)c(-c4cc(-c5cc(=O)c6c(O)cc(O)cc6o5)ccc4O)c3o2)cc1 [7'',4'''-dimethylamentoflavone]"
2,42.2 nM,CC(=O)N[C@@H](CC(C)C)C(=O)N[C@@H](CC(C)C)C(=O)N[C@H](C=O)CCCNC(=N)N [LEUPEPTIN]
3,2520 nM,COc1ccc(-c2cc(=O)c3c(O)cc(O)c(-c4cc(-c5cc(=O)c6c(O)cc(O)cc6o5)ccc4O)c3o2)cc1 [PODOCARPUSFLAVONE A]
4,1420 nM,O=C1C[C@@H](c2ccc(O)c(-c3c(O)cc(O)c4c(=O)cc(-c5ccc(O)cc5)oc34)c2)Oc2cc(O)cc(O)c21
5,1540 nM,O=c1cc(-c2ccc(Oc3c(O)cc4oc(-c5ccc(O)cc5)cc(=O)c4c3O)cc2)oc2cc(O)cc(O)c12 [HINOKIFLAVONE]
6,1880 nM,O=c1cc(-c2ccc(O)c(-c3c(O)cc(O)c4c(=O)cc(-c5ccc(O)cc5)oc34)c2)oc2cc(O)cc(O)c12 [AMENTOFLAVONE]
7,1520 nM,COc1ccc(-c2cc(=O)c3c(O)cc(O)cc3o2)cc1-c1c(O)cc(O)c2c(=O)cc(-c3ccc(O)cc3)oc12 [BILOBETIN]
8,1910 nM,COc1cc2c([nH]c3c4c(c(C)cc32)OC(C)(C)C=C4)c(-c2c(O)c(OC)cc3c2[nH]c2c4c(c(C)cc23)OC(C)(C)C=C4)c1O
